One assay deals with URAT1 (SLC22A12) (Homo sapiens (Human), UniProt Q96S37). As to the kind of experiment: URAT1 (SLC22A12) cellular uptake assay, 3H-orotate transport in stably transfected URAT-1/CHO cells. Format: cell-based.
The next assay concerns the target xanthine oxidase (Homo sapiens (Human), UniProt P47989). As to the kind of experiment: Fluorescence-based xanthine oxidase inhibition assay. The class given is biochemical.
Setting [1] is: URAT-1/CHO cells, 3H-orotate uptake, 7 concentrations 0.01 to 150 μM, read-out: URAT1 IC50.
The mark [2] stands for this setting: triplicate, 10 concentrations, read-out: Xanthine Oxidase IC50.

Molecules are shown by their SMILES. Like-named read-outs stand apart in the source and are kept apart here.

Chain of xanthine oxidase (P47989 whole entry, species assumed): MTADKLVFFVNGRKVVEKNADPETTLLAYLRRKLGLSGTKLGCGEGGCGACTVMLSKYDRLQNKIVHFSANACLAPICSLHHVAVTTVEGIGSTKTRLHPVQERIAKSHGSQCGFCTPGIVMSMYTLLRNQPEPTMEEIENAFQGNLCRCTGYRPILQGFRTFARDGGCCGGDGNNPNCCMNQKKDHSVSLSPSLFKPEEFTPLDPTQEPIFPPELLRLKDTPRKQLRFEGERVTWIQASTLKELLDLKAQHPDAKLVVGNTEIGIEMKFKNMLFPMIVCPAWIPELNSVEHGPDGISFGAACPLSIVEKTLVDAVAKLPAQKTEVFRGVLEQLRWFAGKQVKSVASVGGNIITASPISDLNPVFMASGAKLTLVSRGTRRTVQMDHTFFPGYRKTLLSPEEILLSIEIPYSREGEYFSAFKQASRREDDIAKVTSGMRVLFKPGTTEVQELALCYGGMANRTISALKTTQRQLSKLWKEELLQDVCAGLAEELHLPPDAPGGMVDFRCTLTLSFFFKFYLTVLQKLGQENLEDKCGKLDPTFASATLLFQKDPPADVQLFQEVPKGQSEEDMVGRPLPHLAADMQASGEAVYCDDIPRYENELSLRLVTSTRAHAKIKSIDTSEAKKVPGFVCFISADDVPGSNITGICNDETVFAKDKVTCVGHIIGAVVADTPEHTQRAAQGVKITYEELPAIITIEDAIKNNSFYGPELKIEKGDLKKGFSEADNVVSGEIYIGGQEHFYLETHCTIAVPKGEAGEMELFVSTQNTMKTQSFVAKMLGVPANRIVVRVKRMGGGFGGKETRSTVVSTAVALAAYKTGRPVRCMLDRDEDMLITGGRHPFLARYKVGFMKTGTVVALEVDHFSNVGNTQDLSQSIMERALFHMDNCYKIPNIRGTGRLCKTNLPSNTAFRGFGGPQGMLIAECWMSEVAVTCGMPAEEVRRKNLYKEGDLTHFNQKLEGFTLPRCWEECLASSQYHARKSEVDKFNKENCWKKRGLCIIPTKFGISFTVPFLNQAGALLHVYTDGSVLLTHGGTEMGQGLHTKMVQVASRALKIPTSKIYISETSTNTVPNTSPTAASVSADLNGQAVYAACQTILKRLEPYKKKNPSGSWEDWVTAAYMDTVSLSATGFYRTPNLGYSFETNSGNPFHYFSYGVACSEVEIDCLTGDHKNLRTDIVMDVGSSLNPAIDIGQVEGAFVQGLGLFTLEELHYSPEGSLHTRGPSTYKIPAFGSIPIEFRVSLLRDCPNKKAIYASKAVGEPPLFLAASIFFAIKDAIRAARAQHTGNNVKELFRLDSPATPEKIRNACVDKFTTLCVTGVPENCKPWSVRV
Chain of URAT1 (SLC22A12) (Q96S37 whole entry): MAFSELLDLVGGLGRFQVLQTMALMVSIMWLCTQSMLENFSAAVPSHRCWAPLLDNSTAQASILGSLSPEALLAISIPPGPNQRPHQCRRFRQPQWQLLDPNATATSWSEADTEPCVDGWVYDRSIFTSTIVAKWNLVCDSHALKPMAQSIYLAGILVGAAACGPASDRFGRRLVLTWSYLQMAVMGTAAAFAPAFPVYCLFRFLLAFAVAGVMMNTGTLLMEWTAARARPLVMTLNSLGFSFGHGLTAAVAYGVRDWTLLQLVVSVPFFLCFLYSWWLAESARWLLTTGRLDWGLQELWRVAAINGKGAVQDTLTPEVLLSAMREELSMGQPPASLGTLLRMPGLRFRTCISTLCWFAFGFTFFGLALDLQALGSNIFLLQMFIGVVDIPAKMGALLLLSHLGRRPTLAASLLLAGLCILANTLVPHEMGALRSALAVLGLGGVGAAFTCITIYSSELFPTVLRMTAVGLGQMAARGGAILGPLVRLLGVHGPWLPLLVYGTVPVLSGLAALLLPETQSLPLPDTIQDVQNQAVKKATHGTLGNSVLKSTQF

With `O=C(Nc1ccc(F)cc1)c1c(O)[nH]c(=S)[nH]c1=O` [Formula (Ib), N-(4′-fluorophenyl)-1,2,3,4-tetrahydro-6-hydroxy-4-oxo-2-thioxo-5-pyrimidinecarboxamide], the half-inhibitory concentration (IC50) against URAT1 (SLC22A12) and on xanthine oxidase was below 10 µM in each case.

Consider `O=C(Nc1ccc(O)cc1F)c1c(O)[nH]c(=S)[nH]c1=O` [Formula (Ic), N-(2′-fluoro-4′-hydroxyphenyl)-1,2,3,4-tetrahydro-6-hydroxy-4-oxo-2-thioxo-5-pyrimidinecarboxamide], for which the IC50 at URAT1 (SLC22A12) was below 10 µM; at URAT1 (SLC22A12) (setting [1]), 5.83 µM; against xanthine oxidase it was below 10 µM; at xanthine oxidase (setting [2]) it was 5.6 µM.

Turning to `O=C(Nc1cc(F)c(O)c(F)c1)c1c(O)[nH]c(=O)[nH]c1=O` [Formula (Ig), N-(3,5-difluoro-4-hydroxyphenyl)-6-hydroxy-2,4-dioxo-1,2,3,4-tetrahydropyrimidine-5-carboxamide], the IC50 against URAT1 (SLC22A12) was below 10 µM; at URAT1 (SLC22A12) (setting [1]) it was 3.55 µM; against xanthine oxidase, below 10 µM; at xanthine oxidase (setting [2]), 1.92 µM.

Consider `O=C(Nc1ccc(O)cc1F)c1c(O)[nH]c(=O)[nH]c1=O` [Formula (Ih), N-(2-fluoro-4-hydroxyphenyl)-6-hydroxy-2,4-dioxo-1,2,3,4-tetrahydropyrimidine-5-carboxamide], for which the IC50 on URAT1 (SLC22A12) (setting [1]) amounted to 1.79 µM; on xanthine oxidase (setting [2]), 5.97 µM.

For `O=C(Nc1ccncc1)c1c(O)[nH]c(=O)[nH]c1=O` [Formula (Ik), 6-hydroxy-2,4-dioxo-N-(pyridin-4-yl)-1,2,3,4-tetrahydropyrimidine-5-carboxamide], the IC50 at URAT1 (SLC22A12) (setting [1]) came to 5.3 µM; at xanthine oxidase (setting [2]), 14.3 µM.

(Values after patent US10093631B2, “Bifunctional compounds and use for reducing uric acid levels” (Acquist LLC, priority 2014, dated 2018).)
